# *1 amine or outer side, *2 acyl side, *3 side chain or, on linkers, in order; H or OH if unused. Where a SMILES comes first, the peptide text is derived from it. Side-chain parts run from the residue outwards. [ ]: non-standard residue; d: D form. The star is where a group is joined. γGlu = O=C(O)[C@H](CCC(=O)[*:2])N[*:1]; Met(O2) = CS(=O)(=O)CC[C@H](N)C(=O)O; Palmitoyl = CCCCCCCCCCCCCCCC(=O)*; Met(O) = CS(=O)CC[C@H](N)C(=O)O; Nle = CCCC[C@H](N)C(=O)O; Aib = CC(C)(N)C(=O)O
# How the values were obtained:
# Format in all cases: cell-based
# [1] = molecular target: T1, GIP receptor (Homo sapiens, UniProt P48546); assay: cAMP induction, firefly luciferase-based reporter assay in HEK293 cells co-transfected with GIP receptor; details: EC50 at GIP Receptor
# T1 construct: expressed in transfected cells; host or cells: HEK293
# T1 sequence (P48546 22-466): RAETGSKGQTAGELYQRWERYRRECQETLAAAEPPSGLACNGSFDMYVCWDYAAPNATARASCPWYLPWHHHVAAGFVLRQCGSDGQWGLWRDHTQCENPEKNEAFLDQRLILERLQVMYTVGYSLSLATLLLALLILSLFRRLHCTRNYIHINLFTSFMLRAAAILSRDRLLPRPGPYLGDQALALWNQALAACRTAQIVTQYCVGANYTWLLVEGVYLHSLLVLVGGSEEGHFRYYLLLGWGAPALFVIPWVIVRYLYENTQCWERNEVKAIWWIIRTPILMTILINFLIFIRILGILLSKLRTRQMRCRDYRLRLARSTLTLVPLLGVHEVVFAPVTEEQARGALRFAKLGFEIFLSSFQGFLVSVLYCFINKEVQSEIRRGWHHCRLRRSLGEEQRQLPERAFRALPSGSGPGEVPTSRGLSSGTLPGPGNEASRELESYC
# Source text: (§1) This example describes an exemplary method of testing the biological activity of the peptides of the present disclosures, which method involves assaying cAMP synthesis.
# [2] = molecular target: T2, glucagon receptor (Homo sapiens, UniProt P47871); assay: cAMP induction, firefly luciferase-based reporter assay in HEK293 cells co-transfected with glucagon receptor; details: EC50 at Glucagon Receptor
# T2 construct: expressed in transfected cells; host or cells: HEK293
# T2 sequence (P47871 26-477): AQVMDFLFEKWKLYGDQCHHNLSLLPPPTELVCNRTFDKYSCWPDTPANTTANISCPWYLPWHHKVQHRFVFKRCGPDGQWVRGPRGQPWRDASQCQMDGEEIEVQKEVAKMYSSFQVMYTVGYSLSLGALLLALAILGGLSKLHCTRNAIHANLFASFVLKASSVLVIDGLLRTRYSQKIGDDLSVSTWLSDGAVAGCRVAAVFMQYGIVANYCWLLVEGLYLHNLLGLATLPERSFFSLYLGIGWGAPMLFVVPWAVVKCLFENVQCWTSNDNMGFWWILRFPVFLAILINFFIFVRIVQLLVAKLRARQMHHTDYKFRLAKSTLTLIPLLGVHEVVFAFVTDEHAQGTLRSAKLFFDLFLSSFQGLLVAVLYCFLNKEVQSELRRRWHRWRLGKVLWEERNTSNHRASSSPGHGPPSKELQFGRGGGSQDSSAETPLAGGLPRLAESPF
# Source text: as §1
# [3] = molecular target: T3, GLP-1 receptor (Homo sapiens, UniProt P43220); assay: cAMP induction, firefly luciferase-based reporter assay in HEK293 cells co-transfected with GLP-1 receptor; details: EC50 at GLP-1 Receptor
# T3 construct: expressed in transfected cells; host or cells: HEK293
# T3 sequence (P43220 24-463): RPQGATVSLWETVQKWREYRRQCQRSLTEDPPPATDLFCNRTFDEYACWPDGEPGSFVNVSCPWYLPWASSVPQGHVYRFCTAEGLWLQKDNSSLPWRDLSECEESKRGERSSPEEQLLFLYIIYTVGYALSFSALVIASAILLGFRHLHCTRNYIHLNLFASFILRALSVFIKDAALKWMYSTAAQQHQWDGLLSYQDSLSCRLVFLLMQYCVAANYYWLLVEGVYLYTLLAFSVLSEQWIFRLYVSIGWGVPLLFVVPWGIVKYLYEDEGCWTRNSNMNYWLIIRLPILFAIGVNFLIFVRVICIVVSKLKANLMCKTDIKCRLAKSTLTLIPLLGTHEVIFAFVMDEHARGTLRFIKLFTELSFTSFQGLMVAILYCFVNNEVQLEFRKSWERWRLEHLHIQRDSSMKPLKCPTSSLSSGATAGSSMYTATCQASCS
# Source text: as §1
# [4] = Table 3, analogs of SEQ ID NO: 18 varying at position 3
# [5] = Table 4, analogs of SEQ ID NO: 43 varying at position 3
# [6] = Table 5, analogs of SEQ ID NO: 10
SMILES,"EC50 [1, 4] [pM]","EC50 [2, 4] [nM]","EC50 [3, 4] [pM]","EC50 [1, 5] [pM]","EC50 [2, 5] [nM]","EC50 [3, 5] [pM]",other results
CCCCCCCCCCCCCCCC(=O)N[C@@H](CCC(=O)NCCCC[C@H](NC(=O)[C@H](CC(=O)O)NC(=O)[C@H](CO)NC(=O)[C@@H](NC(=O)[C@H](Cc1ccccc1)NC(=O)[C@@H](NC(=O)CNC(=O)[C@H](CCCC)NC(=O)C(C)(C)NC(=O)[C@@H](N)Cc1c[nH]cn1)[C@@H](C)O)[C@@H](C)O)C(=O)N[C@@H](CO)C(=O)N[C@@H](CCCCN)C(=O)N[C@@H](Cc1ccc(O)cc1)C(=O)N[C@@H](CC(C)C)C(=O)N[C@@H](CCC(=O)O)C(=O)N[C@@H](CCC(=O)O)C(=O)N[C@@H](CCCNC(=N)N)C(=O)N[C@@H](C)C(=O)N[C@@H](C)C(=O)N[C@@H](CCC(N)=O)C(=O)N[C@@H](CCC(=O)O)C(=O)N[C@@H](Cc1ccccc1)C(=O)N[C@H](C(=O)N[C@@H](CCC(N)=O)C(=O)N[C@@H](Cc1c[nH]c2ccccc12)C(=O)N[C@@H](CC(C)C)C(=O)N[C@@H](CC(C)C)C(=O)N[C@@H](CCC(=O)O)C(=O)NCC(=O)NCC(=O)N1CCC[C@H]1C(=O)N[C@@H](CO)C(=O)N[C@@H](CO)C(=O)NCC(=O)N[C@@H](C)C(=O)N1CCC[C@H]1C(=O)N1CCC[C@H]1C(=O)N1CCC[C@H]1C(=O)N[C@@H](CO)C(N)=O)C(C)C)C(=O)O [compound 40] (H-H[Aib][Nle]GTFTSDK([γGlu-Palmitoyl])SKYLEERAAQEFVQWLLEGGPSSGAPPPS-NH2; N-terminus assumed),4,0.068,2,–,–,–,–
CCCCCCCCCCCCCCCC(=O)N[C@@H](CCC(=O)NCCCC[C@H](NC(=O)[C@H](CC(=O)O)NC(=O)[C@H](CO)NC(=O)[C@@H](NC(=O)[C@H](Cc1ccccc1)NC(=O)[C@@H](NC(=O)CNC(=O)[C@H](CCS(C)(=O)=O)NC(=O)C(C)(C)NC(=O)[C@@H](N)Cc1c[nH]cn1)[C@@H](C)O)[C@@H](C)O)C(=O)N[C@@H](CO)C(=O)N[C@@H](CCCCN)C(=O)N[C@@H](Cc1ccc(O)cc1)C(=O)N[C@@H](CC(C)C)C(=O)N[C@@H](CCC(=O)O)C(=O)N[C@@H](CCC(=O)O)C(=O)N[C@@H](CCCNC(=N)N)C(=O)N[C@@H](C)C(=O)N[C@@H](C)C(=O)N[C@@H](CCC(N)=O)C(=O)N[C@@H](CCC(=O)O)C(=O)N[C@@H](Cc1ccccc1)C(=O)N[C@H](C(=O)N[C@@H](CCC(N)=O)C(=O)N[C@@H](Cc1c[nH]c2ccccc12)C(=O)N[C@@H](CC(C)C)C(=O)N[C@@H](CC(C)C)C(=O)N[C@@H](CCC(=O)O)C(=O)NCC(=O)NCC(=O)N1CCC[C@H]1C(=O)N[C@@H](CO)C(=O)N[C@@H](CO)C(=O)NCC(=O)N[C@@H](C)C(=O)N1CCC[C@H]1C(=O)N1CCC[C@H]1C(=O)N1CCC[C@H]1C(=O)N[C@@H](CO)C(N)=O)C(C)C)C(=O)O [compound 41] (H-H[Aib][Met(O2)]GTFTSDK([γGlu-Palmitoyl])SKYLEERAAQEFVQWLLEGGPSSGAPPPS-NH2; N-terminus assumed),67,0.592,2,–,–,–,–
CCCCCCCCCCCCCCCC(=O)N[C@@H](CCC(=O)NCCCC[C@H](NC(=O)[C@H](CC(=O)O)NC(=O)[C@H](CO)NC(=O)[C@@H](NC(=O)[C@H](Cc1ccccc1)NC(=O)[C@@H](NC(=O)CNC(=O)[C@H](CC[S+](C)[O-])NC(=O)C(C)(C)NC(=O)[C@@H](N)Cc1c[nH]cn1)[C@@H](C)O)[C@@H](C)O)C(=O)N[C@@H](CO)C(=O)N[C@@H](CCCCN)C(=O)N[C@@H](Cc1ccc(O)cc1)C(=O)N[C@@H](CC(C)C)C(=O)N[C@@H](CCC(=O)O)C(=O)N[C@@H](CCC(=O)O)C(=O)N[C@@H](CCCNC(=N)N)C(=O)N[C@@H](C)C(=O)N[C@@H](C)C(=O)N[C@@H](CCC(N)=O)C(=O)N[C@@H](CCC(=O)O)C(=O)N[C@@H](Cc1ccccc1)C(=O)N[C@H](C(=O)N[C@@H](CCC(N)=O)C(=O)N[C@@H](Cc1c[nH]c2ccccc12)C(=O)N[C@@H](CC(C)C)C(=O)N[C@@H](CC(C)C)C(=O)N[C@@H](CCC(=O)O)C(=O)NCC(=O)NCC(=O)N1CCC[C@H]1C(=O)N[C@@H](CO)C(=O)N[C@@H](CO)C(=O)NCC(=O)N[C@@H](C)C(=O)N1CCC[C@H]1C(=O)N1CCC[C@H]1C(=O)N1CCC[C@H]1C(=O)N[C@@H](CO)C(N)=O)C(C)C)C(=O)O (stereo partly drawn) [compound 42] (H-H[Aib][Met(O)]GTFTSDK([γGlu-Palmitoyl])SKYLEERAAQEFVQWLLEGGPSSGAPPPS-NH2),6,0.042,1,–,–,–,–
CCCCCCCCCCCCCCCC(=O)N[C@@H](CCC(=O)NCCCC[C@H](NC(=O)[C@H](CC(=O)O)NC(=O)[C@H](CO)NC(=O)[C@@H](NC(=O)[C@H](Cc1ccccc1)NC(=O)[C@@H](NC(=O)CNC(=O)[C@H](CCC(N)=O)NC(=O)C(C)(C)NC(=O)[C@@H](N)Cc1c[nH]cn1)[C@@H](C)O)[C@@H](C)O)C(=O)N[C@@H](CO)C(=O)N[C@@H](CCCCN)C(=O)N[C@@H](Cc1ccc(O)cc1)C(=O)N[C@@H](CC(C)C)C(=O)N[C@@H](CC(=O)O)C(=O)N[C@@H](CCC(=O)O)C(=O)N[C@@H](CCCNC(=N)N)C(=O)N[C@@H](C)C(=O)N[C@@H](C)C(=O)N[C@@H](CCC(N)=O)C(=O)N[C@@H](CC(=O)O)C(=O)N[C@@H](Cc1ccccc1)C(=O)N[C@H](C(=O)N[C@@H](CCC(N)=O)C(=O)N[C@@H](Cc1c[nH]c2ccccc12)C(=O)N[C@@H](CC(C)C)C(=O)N[C@@H](CC(C)C)C(=O)N[C@@H](CCC(=O)O)C(=O)NCC(=O)NCC(=O)N1CCC[C@H]1C(=O)N[C@@H](CO)C(=O)N[C@@H](CO)C(=O)NCC(=O)N[C@@H](C)C(=O)N1CCC[C@H]1C(=O)N1CCC[C@H]1C(=O)N1CCC[C@H]1C(=O)N[C@@H](CO)C(N)=O)C(C)C)C(=O)O [compound 43] (H-H[Aib]QGTFTSDK([γGlu-Palmitoyl])SKYLDERAAQDFVQWLLEGGPSSGAPPPS-NH2),–,–,–,4,0.005,10,"EC50 ([1]; Table 1): 5 pM; EC50 [1, 6]: 18 pM; EC50 ([2]; Table 1): 0.006 nM; EC50 [2, 6]: 0.005 nM; EC50 ([3]; Table 1): 4 pM; EC50 [3, 6]: 7 pM"
CCCCCCCCCCCCCCCC(=O)N[C@@H](CCC(=O)NCCCC[C@H](NC(=O)[C@H](CC(=O)O)NC(=O)[C@H](CO)NC(=O)[C@@H](NC(=O)[C@H](Cc1ccccc1)NC(=O)[C@@H](NC(=O)CNC(=O)[C@@H](NC(=O)C(C)(C)NC(=O)[C@@H](N)Cc1c[nH]cn1)C(C)C)[C@@H](C)O)[C@@H](C)O)C(=O)N[C@@H](CO)C(=O)N[C@@H](CCCCN)C(=O)N[C@@H](Cc1ccc(O)cc1)C(=O)N[C@@H](CC(C)C)C(=O)N[C@@H](CC(=O)O)C(=O)N[C@@H](CCC(=O)O)C(=O)N[C@@H](CCCNC(=N)N)C(=O)N[C@@H](C)C(=O)N[C@@H](C)C(=O)N[C@@H](CCC(N)=O)C(=O)N[C@@H](CC(=O)O)C(=O)N[C@@H](Cc1ccccc1)C(=O)N[C@H](C(=O)N[C@@H](CCC(N)=O)C(=O)N[C@@H](Cc1c[nH]c2ccccc12)C(=O)N[C@@H](CC(C)C)C(=O)N[C@@H](CC(C)C)C(=O)N[C@@H](CCC(=O)O)C(=O)NCC(=O)NCC(=O)N1CCC[C@H]1C(=O)N[C@@H](CO)C(=O)N[C@@H](CO)C(=O)NCC(=O)N[C@@H](C)C(=O)N1CCC[C@H]1C(=O)N1CCC[C@H]1C(=O)N1CCC[C@H]1C(=O)N[C@@H](CO)C(N)=O)C(C)C)C(=O)O [compound 45] (H-H[Aib]VGTFTSDK([γGlu-Palmitoyl])SKYLDERAAQDFVQWLLEGGPSSGAPPPS-NH2),–,–,–,5,0.026,6,–
CCCCCCCCCCCCCCCC(=O)N[C@@H](CCC(=O)NCCCC[C@H](NC(=O)[C@H](CC(=O)O)NC(=O)[C@H](CO)NC(=O)[C@@H](NC(=O)[C@H](Cc1ccccc1)NC(=O)[C@@H](NC(=O)CNC(=O)[C@H](CC[S+](C)[O-])NC(=O)C(C)(C)NC(=O)[C@@H](N)Cc1c[nH]cn1)[C@@H](C)O)[C@@H](C)O)C(=O)N[C@@H](CO)C(=O)N[C@@H](CCCCN)C(=O)N[C@@H](Cc1ccc(O)cc1)C(=O)N[C@@H](CC(C)C)C(=O)N[C@@H](CC(=O)O)C(=O)N[C@@H](CCC(=O)O)C(=O)N[C@@H](CCCNC(=N)N)C(=O)N[C@@H](C)C(=O)N[C@@H](C)C(=O)N[C@@H](CCC(N)=O)C(=O)N[C@@H](CC(=O)O)C(=O)N[C@@H](Cc1ccccc1)C(=O)N[C@H](C(=O)N[C@@H](CCC(N)=O)C(=O)N[C@@H](Cc1c[nH]c2ccccc12)C(=O)N[C@@H](CC(C)C)C(=O)N[C@@H](CC(C)C)C(=O)N[C@@H](CCC(=O)O)C(=O)NCC(=O)NCC(=O)N1CCC[C@H]1C(=O)N[C@@H](CO)C(=O)N[C@@H](CO)C(=O)NCC(=O)N[C@@H](C)C(=O)N1CCC[C@H]1C(=O)N1CCC[C@H]1C(=O)N1CCC[C@H]1C(=O)N[C@@H](CO)C(N)=O)C(C)C)C(=O)O (stereo partly drawn) [compound 46],–,–,–,18,0.089,3,–

# From patent US9340600B2 (Indiana University Research and Technology Corporation, priority 2012, dated 2016)
